Assays:
[1] = target: purified recombinant human GAC (GLS1) (Homo sapiens (Human), UniProt O94925); assay: GLS1 Enzymatic Activity Assay (dual-coupled enzymatic assay, resorufin/Amplex UltraRed readout); assay type: biochemical;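 also: glutamate from GAC coupled via glutamate oxidase and peroxidase to resorufin, read as fluorescence (ex 530, em 590 nm) kinetically or at 20 min, four-parameter logistic IC50 fit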
A549 cells = assay: Proliferation Assay (A549 viability, Cell Titer Fluor, 72 hours); assay type: cell-based; details: Homo sapiens, A549, 72 h
Summary of the method: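 Cell Titer Fluor fluorescence after 72 h compound treatment (0.5% DMSO, 37 °C, 5% CO2) of A549 cells plated 24 h earlier at 1000/well. Four-parameter logistic fitting gave IC50.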

purified recombinant human GAC (GLS1), sequence (O94925 other isoform, or with tags, fused parts or gaps): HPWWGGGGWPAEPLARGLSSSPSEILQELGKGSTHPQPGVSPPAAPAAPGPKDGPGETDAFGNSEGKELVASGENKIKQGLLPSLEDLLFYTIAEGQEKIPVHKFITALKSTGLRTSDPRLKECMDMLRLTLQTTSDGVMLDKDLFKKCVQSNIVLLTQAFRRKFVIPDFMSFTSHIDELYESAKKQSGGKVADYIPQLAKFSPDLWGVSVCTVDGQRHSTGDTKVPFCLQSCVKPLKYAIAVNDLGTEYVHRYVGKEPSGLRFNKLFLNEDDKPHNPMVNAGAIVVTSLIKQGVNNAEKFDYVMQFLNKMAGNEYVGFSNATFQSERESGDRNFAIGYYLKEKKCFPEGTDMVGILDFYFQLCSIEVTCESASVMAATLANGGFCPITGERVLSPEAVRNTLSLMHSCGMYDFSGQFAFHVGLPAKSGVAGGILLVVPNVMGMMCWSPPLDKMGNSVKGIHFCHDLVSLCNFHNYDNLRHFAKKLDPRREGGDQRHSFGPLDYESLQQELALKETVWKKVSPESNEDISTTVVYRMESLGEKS

Compound	IC50 [1]	EC50 (A549 cells)
O=C(CC1CCCC1)Nc1cn(CCCCn2cc(C(=O)NCc3cccnc3)nn2)nn1 [Example 309, 1-{4-[4-(2-cyclopentylacetamido)-1H-1,2,3-triazol-1-yl]butyl}-N-(pyridin-3-ylmethyl)-1H-1,2,3-triazole-4-carboxamide]	100 to 500 nM	100 to 500 nM
Cc1ccc(CC(=O)Nc2cn(CCCCn3cc(C(=O)NCC4CCCC4)nn3)nn2)cn1 [Example 311, N-(cyclopentylmethyl)-1-(4-{4-[2-(6-methylpyridin-3-yl)acetamido]-1H-1,2,3-triazol-1-yl}butyl)-1H-1,2,3-triazole-4-carboxamide]	100 to 500 nM	500 to 5000 nM
Cc1ccc(CC(=O)Nc2cn(CCCCn3cc(C(=O)NCC4CCCCC4)nn3)nn2)cn1 [Example 312, N-(cyclohexylmethyl)-1-(4-{4-[2-(6-methylpyridin-3-yl)acetamido]-1H-1,2,3-triazol-1-yl}butyl)-1H-1,2,3-triazole-4-carboxamide]	100 to 500 nM	500 to 5000 nM
Cc1ccc(CNC(=O)c2cn(CCCCn3cc(NC(=O)Cc4ccccn4)nn3)nn2)cn1 [Example 314, N-[(6-methylpyridin-3-yl)methyl]-1-(4-{4-[2-(pyridin-2-yl)acetamido]-1H-1,2,3-triazol-1-yl}butyl)-1H-1,2,3-triazole-4-carboxamide]	100 to 500 nM	500 to 5000 nM
Cc1ccc(CNC(=O)c2cn(CCCCn3cc(NC(=O)Cc4cccnc4)nn3)nn2)cn1 [Example 315, N-[(6-methylpyridin-3-yl)methyl]-1-(4-{4-[2-(pyridin-3-yl)acetamido]-1H-1,2,3-triazol-1-yl}butyl)-1H-1,2,3-triazole-4-carboxamide]	100 to 500 nM	500 to 5000 nM
Cc1ccc(CNC(=O)c2cn(CCCCn3cc(NC(=O)CC4CCCC4)nn3)nn2)cn1 [Example 317, 1-{4-[4-(2-cyclopentylacetamido)-1H-1,2,3-triazol-1-yl]butyl}-N-[(6-methylpyridin-3-yl)methyl]-1H-1,2,3-triazole-4-carboxamide]	100 to 500 nM	100 to 500 nM

Continued, values first:

IC50 [1]	EC50 (A549 cells)	Compound
< 100 nM	100 to 500 nM	O=C(Cc1cccc(OC(F)(F)F)c1)Nc1cn(CCCCn2cc(C(=O)NCc3cccnc3)nn2)nn1 [Example 307, N-(pyridin-3-ylmethyl)-1-[4-(4-{2-[3-(trifluoromethoxy)phenyl]acetamido}-1H-1,2,3-triazol-1-yl)butyl]-1H-1,2,3-triazole-4-carboxamide]
< 100 nM	100 to 500 nM	O=C(CC1CCCCC1)Nc1cn(CCCCn2cc(C(=O)NCc3cccnc3)nn2)nn1 [Example 310, 1-{4-[4-(2-cyclohexylacetamido)-1H-1,2,3-triazol-1-yl]butyl}-N-(pyridin-3-ylmethyl)-1H-1,2,3-triazole-4-carboxamide]
< 100 nM	< 100 nM	Cc1ccc(CC(=O)Nc2cn(CCCCn3cc(C(=O)NCc4cccc(OC(F)(F)F)c4)nn3)nn2)cn1 [Example 313, 1-(4-{4-[2-(6-methylpyridin-3-yl)acetamido]-1H-1,2,3-triazol-1-yl}butyl)-N-{[3-(trifluoromethoxy)phenyl]methyl}-1H-1,2,3-triazole-4-carboxamide]
< 100 nM	500 to 5000 nM	Cc1ccc(CNC(=O)c2cn(CCCCn3cc(NC(=O)Cc4ccc(C)nc4)nn3)nn2)cn1 [Example 316, 1-(4-{4-[2-(6-methylpyridin-3-yl)acetamido]-1H-1,2,3-triazol-1-yl}butyl)-N-[(6-methylpyridin-3-yl)methyl]-1H-1,2,3-triazole-4-carboxamide]
< 100 nM	< 100 nM	Cc1ccc(CNC(=O)c2cn(CCCCn3cc(NC(=O)CC4CCCCC4)nn3)nn2)cn1 [Example 318, 1-{4-[4-(2-cyclohexylacetamido)-1H-1,2,3-triazol-1-yl]butyl}-N-[(6-methylpyridin-3-yl)methyl]-1H-1,2,3-triazole-4-carboxamide]

— patent US10344025B2, “GLS1 inhibitors for treating disease” (Board of Regents, The University of Texas System, priority 2014, dated 2019)
